Experiments:
Sulfotransferase 1A1 [1] = target: T1, Sulfotransferase 1A1 (Homo sapiens, UniProt P50225); test: Binding affinity to human SULT1A1 expressed in Escherichia coli assessed as change in intrinsic fluorescence; format: ADME
Sulfotransferase 1A1 [2] = target: T1, Sulfotransferase 1A1; test: Binding affinity to human SULT1A1 expressed in Escherichia coli assessed as change in intrinsic fluorescence in presence of 3',5'-phosphoadenosine; format: ADME
Sulfotransferase 1A1 [3] = target: T1, Sulfotransferase 1A1; test: Inhibition of human SULT1A1 expressed in Escherichia coli assessed as 17beta-estradiol sulfation at 100 nM by Michaelis-Menten equation analysis
Sulfotransferase 1A1 [4] = target: T1, Sulfotransferase 1A1; test: Inhibition of human SULT1A1 expressed in Escherichia coli assessed as p-nitrophenol sulfation at 100 nM by Michaelis-Menten equation analysis
Sulfotransferase 1A1 [5] = target: T1, Sulfotransferase 1A1; test: Inhibition of human SULT1A1 expressed in Escherichia coli assessed as beta-naphthol sulfation at 100 nM by Michaelis-Menten equation analysis
Sulfotransferase 1A1 [6] = target: T1, Sulfotransferase 1A1; test: Inhibition of SULT1A1 in human MCF7 cells assessed as 17beta-estradiol sulfation; format: cell-based

T1 sequence (P50225 whole entry): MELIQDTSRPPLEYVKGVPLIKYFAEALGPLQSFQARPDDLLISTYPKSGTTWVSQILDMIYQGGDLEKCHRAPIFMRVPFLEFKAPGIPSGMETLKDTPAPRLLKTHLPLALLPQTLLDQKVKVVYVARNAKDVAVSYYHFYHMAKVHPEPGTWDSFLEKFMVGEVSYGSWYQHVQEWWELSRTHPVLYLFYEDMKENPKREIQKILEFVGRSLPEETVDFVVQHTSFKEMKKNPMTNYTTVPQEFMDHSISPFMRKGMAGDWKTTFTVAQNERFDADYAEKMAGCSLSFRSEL

SMILES | Kd (Sulfotransferase 1A1 [1]) [nM] | Kd (Sulfotransferase 1A1 [2]) [nM] | Ki (Sulfotransferase 1A1 [3]) [nM] | Ki (Sulfotransferase 1A1 [4]) [nM] | Ki (Sulfotransferase 1A1 [5]) [nM] | IC50 (Sulfotransferase 1A1 [6]) [nM]
C[C@]12CC[C@@H]3c4ccc(O)cc4CC[C@H]3[C@@H]1CC[C@@H]2O [ESTRADIOL] | 2300 | 1200 |  |  |  | 
C#C[C@]1(O)CC[C@H]2[C@@H]3CCc4cc(O)ccc4[C@H]3CC[C@@]21C [ETHINYL ESTRADIOL] | 500 | 4.3 | 14.9 | 8.9 | 19 | 20

— ChEMBL document CHEMBL3525919, “Potent inhibition of human sulfotransferase 1A1 by 17α-ethinylestradiol: role of 3'-phosphoadenosine 5'-phosphosulfate binding and structural rearrangements in regulating inhibition and activity” (Drug Metab Dispos, 2012)
